Results published in US10144746B2 (GLOBAL BLOOD THERAPEUTICS, INC., priority 2015, dated 2018).

biological target: Human plasma kallikrein (Homo sapiens (Human), UniProt P03952); assay: In vitro plasma kallikrein inhibition assay (chromogenic substrate D-Pro-Phe-Arg-pNa, absorbance at 405 nm, IC50 determination); type: biochemical; details: read-out: KLKB1 pIC50 (converted)
Protocol: In Vitro Plasma Kallikrein Inhibition Assay
The chromogenic substrate D-Pro-Phe-Arg-pNa, 2HCl (BIOPHEN CS-31(02) from Hyphen BioMed, Neuville-Sur-oise, France) was dissolved in 5 mL deionized water and stored at 4° C. […] All other chemicals were of analytical grade.
A stock solution of 7 μM in 50% glycerol was stored at −20° C.
Enzyme reactions were conducted in “assay buffer” comprised of 20 mM HEPES at pH 7.4, 150 mM NaCl, 0.1% PEG-8000 and 0.01% Triton X-100.
Both enzyme and substrate were diluted in assay buffer.
Plate measurements were conducted using a SPECTROStar Nano reader (BMG Labtech, San Francisco, Calif., USA). […] We used discrete wavelength, precise, kinetic reads of 15 cycles with a 60 sec cycle time.
Determination of IC50 values
The test compound was dissolved in 100% DMSO. The compounds were serially diluted in DMSO in a 7 point dose response. For the assays, 66.5 μL of protease solution (protease in assay buffer) was added per well followed by the addition of 8.5 μL of compound in 100% DMSO. […] After 30 min. incubation at room temperature on an orbital shaker, the reactions were started by the addition of 10 μL substrate solution (in assay buffer, final assay concentration was 600 uM). After the addition of the substrate solution the final DMSO concentration was 10%. The plate was placed again on the shaker for 5 sec, spun at 2000 rpm for 5 sec and read on the spectrophotometer. […] The IC50 value was calculated from the plot of rate vs. inhibitor concentration by a 4 parameter logistic equation: y=A+((B−A)/([…]))
where y is the rate at the inhibitor concentration, x. A is the minimum y value at the highest inhibitor concentration and B is the y value in the absence of inhibitor, C is the IC50 value and D is the slope factor. The curve fitting was conducted with the non-linear regression routine of the analysis software XLfit (IDBS, version 5.3.1).

Sequence of Human plasma kallikrein (P03952 391-638): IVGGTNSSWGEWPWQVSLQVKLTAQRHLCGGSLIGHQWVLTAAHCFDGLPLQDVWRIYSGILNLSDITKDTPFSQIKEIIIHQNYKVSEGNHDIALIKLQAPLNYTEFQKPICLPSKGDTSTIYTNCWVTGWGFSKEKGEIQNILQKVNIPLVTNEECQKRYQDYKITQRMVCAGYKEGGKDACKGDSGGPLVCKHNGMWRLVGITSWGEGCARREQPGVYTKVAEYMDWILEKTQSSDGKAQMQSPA
Sequence of Human plasma kallikrein (P03952 20-390 partner): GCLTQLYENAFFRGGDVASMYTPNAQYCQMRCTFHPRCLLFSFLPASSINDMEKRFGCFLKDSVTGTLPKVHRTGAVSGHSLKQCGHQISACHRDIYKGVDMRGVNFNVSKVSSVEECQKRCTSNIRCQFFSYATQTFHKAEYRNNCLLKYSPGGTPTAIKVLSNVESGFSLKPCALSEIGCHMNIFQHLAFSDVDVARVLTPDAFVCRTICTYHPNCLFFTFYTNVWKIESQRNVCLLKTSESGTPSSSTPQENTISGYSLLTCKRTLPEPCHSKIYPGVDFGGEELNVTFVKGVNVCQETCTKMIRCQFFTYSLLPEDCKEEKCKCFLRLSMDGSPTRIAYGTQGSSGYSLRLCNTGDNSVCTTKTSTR

IC50 [nM] | SMILES
19.5 | CCc1cc(N)nc(C)c1CNC(=O)c1ccc2c(c1)C1OC2c2ccc(-c3ccc(F)cc3F)cc21 (racemic) [Example 135, (±)-N-[(6-amino-4-ethyl-2-methylpyridin-3-yl)methyl]-12-(2,4-difluorophenyl)-15-oxatetracyclo[6.6.1.0^2,^7.0^9,1^4] pentadeca-2,4,6,9,11,13-hexaene-4-carboxamide]
105 | Cc1cc(N)nc(C)c1CNC(=O)c1ccc2c(c1)C1OC2c2ccc(-c3c(C)cc(F)cc3F)cc21 (racemic) [Example 141, (±)-N-[(6-amino-2,4-dimethlpyridin-3-yl)-methyl]-12-(2,4-difluoro-6-methylphenyl)-15-oxatetracyclo[6.6.1.0^2,^7.0^9,1^4] pentadeca-2,4,6,9,11,13-hexaene-4-carboxamide]
1620 | CCc1cc(N)nc(C)c1CNC(=O)c1ccc2c(c1)C1OC2c2ccc(-c3c(C)cc(F)cc3F)cc21 (racemic) [Example 142, (±)-N-[(6-amino-4-ethyl-2-methylpyridin-3-yl)-methyl]-12-(2,4-difluoro-6-methylphenyl)-15-oxatetracyclo[6.6.1.0^2,^7.0^9,1^4] pentadeca-2,4,6,9,11,13-hexaene-4-carboxamide]
148 | Cc1cc(N)nc(C)c1CNC(=O)c1ccc2c(c1)C1OC2c2ccc(-c3c(F)cc(F)cc3Cl)cc21 (racemic) [Example 146, (±)-N-[(6-amino-2,4-dimethylpyridin-3-yl)-methyl]-12-(2-chloro-4,6-difluorophenyl)-15-oxatetracyclo[6.6.1.0^2,^7.0^9,1^4] pentadeca-2,4,6,9,11,13-hexaene-4-carboxamide]
372 | Cc1cc(CN)cc(C)c1CNC(=O)c1ccc2c(c1)C1OC2c2ccc(-c3ccc(F)cc3F)cc21 (racemic) [Example 147, (±)-N-{[4-(aminomethyl)-2,6-dimethylphenyl]-methyl}-12-(2,4-difluorophenyl)-15-oxatetracyclo[6.6.1.0^2,^7.0^9,1^4] pentadeca-2,4,6,9,11,13-hexaene-4-carboxamide]
34.7 | COc1cc(N)nc(C)c1CNC(=O)c1ccc2c(c1)C1OC2c2ccc(-c3c(C)cc(F)cc3F)cc21 (racemic) [Example 150, (±)-N-[(6-amino-4-methoxy-2-methylpyridin-3-yl)methyl]-12-(2,4-difluoro-6-methylphenyl)-15-oxatetracyclo[6.6.1.0^2,^7.0^9,1^4] pentadeca-2,4,6,9,11,13-hexaene-4-carboxamide]
195 | CCOc1cc(N)nc(C)c1CNC(=O)c1ccc2c(c1)C1OC2c2ccc(-c3c(C)cc(F)cc3F)cc21 (racemic) [Example 151, (±)-N-[(6-amino-4-ethoxy-2-methylpyridin-3-yl)-methyl]-12-(2,4-difluoro-6-methylphenyl)-15-oxatetracyclo[6.6.1.0^2,^7.0^9,1^4] pentadeca-2,4,6,9,11,13-hexaene-4-carboxamide]

The next lines start with the compound.

SMILES | IC50 [nM]
CCOc1cc(N)nc(C)c1CNC(=O)c1ccc2c(c1)C1OC2c2ccc(Cn3cccn3)cc21 (racemic) [Example 133, (±)-N-[(6-amino-4-ethoxy-2-methylpyridin-3-yl)methyl]-12-[(1H-pyrazol-1-yl)methyl]-15-oxatetracyclo[6.6.1.0^2,^7.0^9,1^4] pentadeca-2,4,6,9,11,13-hexaene-4-carboxamide] | 11
CCOc1cc(N)nc(C)c1CNC(=O)c1ccc2c(c1)C1OC2c2ccc(Cn3cc(C)cn3)cc21 (racemic) [Example 134, (±)-N-[(6-amino-4-ethoxy-2-methylpyridin-3-yl)methyl]-12-[(4-methyl-1H-pyrazol-1-yl)methyl]-15-oxatetracyclo[6.6.1.0^2,^7.0^9,1^4]-pentadeca-2,4,6,9,11,13-hexaene-4-carboxamide] | 2
CCc1cc(N)nc(C)c1CNC(=O)c1ccc2c(c1)C1OC2c2ccc(-c3ccc(C)cc3C#N)cc21 (racemic) [Example 136, (±)-N-[(6-amino-4-ethyl-2-methylpyridin-3-yl)methyl]-12-(2-cyano-4-methylphenyl)-15-oxatetracyclo[6.6.1.0^2,^7.0^9,1^4] pentadeca-2,4,6,9,11,13-hexaene-4-carboxamide] | 3.98
Cc1ccc(-c2ccc3c(c2)C2OC3c3ccc(C(=O)NCc4c(C)cc5c(c4C)CNC5)cc32)c(C#N)c1 (racemic) [Example 137, (±)-12-(2-cyano-4-methylphenyl)-N-[(4,6-dimethyl-2,3-dihydro-1H-isoindol-5-yl)methyl]-15-oxatetracyclo[6.6.1.0^2,^7.0^9,1^4] pentadeca-2,4,6,9,11,13-hexaene-4-carboxamide] | 437
Cc1ccc(-c2ccc3c(c2)C2OC3c3ccc(C(=O)NCc4c(F)cc5c(c4C)CNC5)cc32)c(C#N)c1 (racemic) [Example 143, (±)-12-(2-cyano-4-methylphenyl)-N-[(6-fluoro-4-methyl-2,3-dihydro-1H-isoindol-5-yl)methyl]-15-oxatetracyclo [6.6.1.0^2,^7.0^9,1^4]pentadeca-2,4,6,9,11,13-hexaene-4-carboxamide] | 288
Cc1cc(N)nc(C)c1CNC(=O)c1ccc2c(c1)C1OC2c2ccc(Oc3cccnc3)cc21 (racemic) [Example 144, (±)-N-[(6-amino-2,4-dimethylpyridin-3-yl)methyl]-12-(pyridin-3-yloxy)-15-oxatetracyclo[6.6.1.0^2,^7.0^9,1^4] pentadeca-2,4,6,9,11,13-hexaene-4-carboxamide] | 6310
Nc1nccc2c(CNC(=O)c3ccc4c(c3)C3OC4c4ccc(-c5ccc(F)cc5F)cc43)cccc12 (racemic) [Example 148, (±)-N-[(1-aminoisoquinolin-5-yl)methyl]-12-(2,4-difluorophenyl)-15-oxatetracyclo [6.6.1.0^2,^7.0^9,1^4]-pentadeca-2,4,6,9,11,13-hexaene-4-carboxamide] | 85.1
Cc1cc(N)nc(C)c1CNC(=O)c1ccc2c(c1)C1OC2c2ccc(-n3ccc(=O)cc3)cc21 (racemic) [Example 149, (±)-N-[(6-amino-2,4-dimethylpyridin-3-yl]-methyl]-12-(4-oxo-1,4-dihydropyridin-1-yl)-15-oxatetracyclo[6.6.1.0^2,^7.0^9,1^4] pentadeca-2,4,6,9,11,13-hexaene-4-carboxamide] | 5890
COc1ccc(Oc2ccc3c(c2)C2OC3c3ccc(C(=O)NCc4c(C)cc(N)nc4C)cc32)cn1 (racemic) [Example 152, (±)-N-[(6-amino-2,4-dimethylpyridin-3-yl)-methyl]-12-[(6-methoxypyridin-3-yl)oxy]-15-(oxatetracyclo[6.6.1.0^2,^7.0^9,1^4]pentadeca-2,4,6,9,11,13-hexaene-4-carboxamide] | 1260
Cc1cnn(Cc2ccc3c(c2)C2OC3c3ccc(C(=O)NCc4c(F)cc5c(c4C)CNC5)cc32)c1 (racemic) [Example 153, (±)-N-[(6-fluoro-4-methyl-2,3-dihydro-1H-isoindol-5-yl)methyl]-12-[(4-methyl-1H-pyrazol-1-yl)methyl]-15-oxatetracyclo[6.6.1.0^2,^7.0^9,1^4]-pentadeca-2,4,6,9,11,13-hexaene-4-carboxamide] | 204
Nc1nccc2ccc(CNC(=O)c3ccc4c(c3)C3OC4c4ccc(-c5ccc(F)cc5F)cc43)cc12 (racemic) [Example 154, (±)-N-[(1-aminoisoquinolin-7-yl)methyl]-12-(2,4-difluorophenyl)-15-oxatetracyclo [6.6.1.0^2,^7.0^9,1^4]-pentadeca-2,4,6,9,11,13-hexaene-4-carboxamide] | 3720
